Converted amounts (≈) assume the structure as drawn. Square brackets hold non-standard residues; d marks the D form. Ends that are not written are not given here. Peptide text beside a SMILES is read from it.
What was measured:
MDR A. baumannii = assay: microbe, parasite or virus in culture; settings: CLSI broth microdilution; CAMHB with 50 mg/L Ca2+, 10 mg/L Mg2+; 5 × 10^5 CFU/ml; 18 h 37 °C; triplicate; strain ATCC BAA-1605
Description: (§1) MDR Pseudomonas aeruginosa (CCARM 2180) was purchased from the Culture Collection of Antimicrobial Resistance Microbes (Seoul, Republic of Korea). MDR Acinetobacter baumannii (ATCC BAA-1605) and MDR Enterococcus faecalis (ATCC 51575) were purchased from the American Type Culture Collection (Manassas, VA, USA). MDR Staphylococcus aureus (KCCM 40510) was purchased from the Korean Culture Center of Microorganisms (Seoul, Republic of Korea). S. aureus (KCTC 1621) was purchased from the Korean Collection for Type Cultures. A. baumannii (KCCM 40203) was purchased from the Korean Culture Center of Microorganisms (Seoul, Republic of Korea).
(§2) To assess antimicrobial activity, the MIC50 and MIC90 were measured using broth microdilution following CLSI guidelines. […] Each experiment was performed in triplicate. Meropenem (Sigma, Darmstadt, Germany) and colistin were used as control antibiotics. Cation-adjusted Mueller–Hinton broth (CAMHB) (Becton, Dickinson and Company, Franklin Lakes, USA) with supplied calcium (50 mg/L) and magnesium (10 mg/L) was used for the CLSI-test condition. Bacteria in midlog phase and peptides were separately diluted in CAMHB. The bacteria and peptide solutions were then mixed in 96-well polyethylene plates (SPL, Gyeonggi-do, Korea) and incubated for 18 h at 37 °C. The final concentration for bacteria was 5 × 10^5 CFU/ml. […] The MIC was defined to be the lowest concentration of peptide without visible turbidity by comparing with control antibiotics with the unaided eye. […] Each experiment was performed in triplicate. MICs in albumin and acetic acid solutions were measured using the same protocol but with 0.2% bovine serum albumin (Bovogen, Keilor, Australia), 0.01% acetic acid (Merck, New Jersey, USA), and CAMHB with both calcium and magnesium. In addition, MICs used in the antibiotic resistance acquisition test, the outer–inner membrane permeation test, and the transmembrane potential test and for FE-SEM were individually determined. The final bacterial concentrations used were as follows: for resistance acquisition, optical density (OD) 0.01; for outer–inner membrane permeability assays (LB), OD 0.1; for the transmembrane potential test, 1 × 10^8 CFU/ml (OD 0.171); […]. Inhibitory activity unidentifiable by direct observation was determined by counting the CFUs. Each experiment was performed at least twice.

MDR P. aeruginosa = assay: microbe, parasite or virus in culture; settings: CLSI broth microdilution; CAMHB with 50 mg/L Ca2+, 10 mg/L Mg2+; 5 × 10^5 CFU/ml; 18 h 37 °C; no visible turbidity; triplicate; strain CCARM 2180
Description: as §1, §2

MDR S. aureus = assay: microbe, parasite or virus in culture; settings: CLSI broth microdilution; CAMHB with 50 mg/L Ca2+, 10 mg/L Mg2+; 5 × 10^5 CFU/ml; 18 h 37 °C; triplicate; strain KCCM 40510
Description: as §1, §2

human red blood cells = assay: Hemolytic activity; assay type: cell-based; settings: red cells of human, 18 h
Method: Human red blood cells (Zenbio, North Carolina, USA) and peptides were separately diluted in PBS (blood concentration, 8%). The blood cell and peptide solutions were then mixed in 96-well polyethylene plates (SPL, Gyeonggi-do, Korea) and incubated for 18 h at 37 °C. The final concentration of human red blood cells was 4%, while peptide concentrations were 100 μM, 50 μM, 25 μM, 12.5 μM, 6.25 μM, 3.13 μM, 1.56 μM, and 0.78 μM. After incubation, the plates were centrifuged at 1000 × g for 5 min, and the supernatants were transferred to 96-well polyethylene plates. Hemolysis levels were determined by measuring the absorbance at 540 nm with a SpectraMax plate spectrophotometer (Molecular Devices, California, USA). Control samples were treated with 1% Triton X-100 (for 100% hemolysis) or solution with 0 μM peptide (for 0% hemolysis) and melittin (for positive control). Each experiment was performed in triplicate.

Compound | Minimum inhibitory concentrations, MDR A. baumannii (MDR A. baumannii) [µM] | Minimum inhibitory concentrations, MDR P. aeruginosa (MDR P. aeruginosa) [µM] | Minimum inhibitory concentrations, MDR S. aureus (MDR S. aureus) [µM] | Hemolysis percent, 25 μM (human red blood cells) [%] | Hemolysis percent, 50 μM (human red blood cells) [%] | Hemolysis percent, 100 μM (human red blood cells) [%]
CC[C@@H](C)[C@@H](NC(=O)[C@@H](Cc1c[nH]c2ccccc12)NC(=O)[C@H](NC(=O)[C@@H](CC(C)C)NC(=O)[C@@H](Cc1c[nH]c2ccccc12)NC(=O)[C@H](N)CCCCN)C(C)C)C(=O)N[C@H](Cc1c[nH]c2ccccc12)C(=O)N[C@H](CCCNC(=N)N)C(=O)N[C@H](CCCNC(=N)N)C(=O)N[C@H](CCCNC(=N)N)C(N)=O [WCopW35] (H-[dK][dW][dL][dV][dW][dI][dW][dR][dR][dR]-NH2) | 0.63 (≈ 0.944 µg/mL) | 2.5 (≈ 3.74 µg/mL) | 0.63 (≈ 0.944 µg/mL) | 1.18 ±0.34 | 2.71 ±0.63 | 6.07 ±1.01
CC[C@@H](C)[C@@H](NC(=O)[C@@H](Cc1c[nH]c2ccccc12)NC(=O)[C@H](NC(=O)[C@@H](CC(C)C)NC(=O)[C@@H](Cc1c[nH]c2ccccc12)NC(=O)[C@H](N)CC(=O)O)C(C)C)C(=O)N[C@H](Cc1c[nH]c2ccccc12)C(=O)N[C@H](CCCNC(=N)N)C(=O)N[C@H](CCCNC(=N)N)C(=O)N[C@H](CCCNC(=N)N)C(N)=O [WCopW36] (H-[dD][dW][dL][dV][dW][dI][dW][dR][dR][dR]-NH2) | – | – | 1.25 (≈ 1.86 µg/mL) | 4.03 ±0.40 | 7.48 ±0.90 | 9.86 ±1.62
CC(C)C[C@@H](NC(=O)[C@H](N)Cc1c[nH]c2ccccc12)C(=O)N[C@@H](C(=O)N[C@H](Cc1c[nH]c2ccccc12)C(=O)N[C@H](CCCCN)C(=O)N[C@H](Cc1c[nH]c2ccccc12)C(=O)N[C@H](CCCNC(=N)N)C(=O)N[C@H](CCCNC(=N)N)C(=O)N[C@H](CCCNC(=N)N)C(N)=O)C(C)C [WCopW37] (H-[dW][dL][dV][dW][dK][dW][dR][dR][dR]-NH2) | 2.5 (≈ 3.46 µg/mL) | – | 5 (≈ 6.92 µg/mL) | 0.13 ±0.02 | 0.08 ±0.01 | 0.16 ±0.03
CC(C)[C@@H](NC(=O)[C@H](N)Cc1c[nH]c2ccccc12)C(=O)N[C@@H](C(=O)N[C@H](Cc1c[nH]c2ccccc12)C(=O)N[C@@H](C(=O)N[C@@H](C(=O)N[C@H](Cc1c[nH]c2ccccc12)C(=O)N[C@H](CCCNC(=N)N)C(=O)N[C@H](CCCNC(=N)N)C(=O)N[C@H](CCCNC(=N)N)C(N)=O)C(C)C)C(C)C)C(C)C [WCopW42] (H-[dW][dV][dV][dW][dV][dV][dW][dR][dR][dR]-NH2) | – | – | – | 7.14 | 16.66 | 26.66
CC(C)[C@@H](NC(=O)[C@H](N)Cc1c[nH]c2ccccc12)C(=O)N[C@@H](C(=O)N[C@@H](C(=O)N[C@@H](C(=O)N[C@H](Cc1c[nH]c2ccccc12)C(=O)N[C@H](CCCNC(=N)N)C(=O)N[C@H](CCCNC(=N)N)C(=O)N[C@H](CCCNC(=N)N)C(N)=O)C(C)C)C(C)C)C(C)C [WCopW44] (H-[dW][dV][dV][dV][dV][dW][dR][dR][dR]-NH2) | 2.5 (≈ 3.14 µg/mL) | – | 1.25 (≈ 1.57 µg/mL) | 0.11 ±0.03 | 0.87 ±0.36 | 4.48 ±1.01
CC[C@@H](C)[C@@H](NC(=O)[C@@H](Cc1c[nH]c2ccccc12)NC(=O)[C@@H](CCCNC(=N)N)NC(=O)[C@H](N)CCCNC(=N)N)C(=O)N[C@H](Cc1c[nH]c2ccccc12)C(=O)N[C@@H](C(=O)N[C@@H](C(=O)N[C@H](Cc1c[nH]c2ccccc12)C(=O)N[C@H](CCCNC(=N)N)C(N)=O)[C@H](C)CC)C(C)C [WCopW54] (H-[dR][dR][dW][dI][dW][dV][dI][dW][dR]-NH2) | 0.63 (≈ 0.863 µg/mL) | 2.5 (≈ 3.42 µg/mL) | 0.63 (≈ 0.863 µg/mL) | 8.38 ± 1.14 | 11.43 ± 2.42 | 35.13 ± 4.13
CC(C)C[C@@H](NC(=O)[C@H](N)Cc1c[nH]c2ccccc12)C(=O)N[C@@H](C(=O)N[C@H](Cc1c[nH]c2ccccc12)C(=O)N[C@@H](C(=O)N[C@H](Cc1ccc(O)cc1)C(=O)N[C@H](CC(C)C)C(=O)N[C@H](CCCNC(=N)N)C(=O)N[C@H](CCCCN)C(=O)N[C@H](CCCCN)C(=O)N[C@H](CCCNC(=N)N)C(N)=O)C(C)C)C(C)C [WCopWVY2] (H-[dW][dL][dV][dW][dV][dY][dL][dR][dK][dK][dR]-NH2) | – | – | – | 3.46 | 6.02 | 10.12
CC[C@@H](C)[C@@H](NC(=O)[C@@H](Cc1c[nH]c2ccccc12)NC(=O)[C@H](NC(=O)[C@@H](CC(C)C)NC(=O)[C@H](N)Cc1c[nH]c2ccccc12)C(C)C)C(=O)N[C@H](Cc1ccc(O)cc1)C(=O)N[C@@H](C(=O)N[C@H](CCCNC(=N)N)C(=O)N[C@H](CCCCN)C(=O)N[C@H](CCCCN)C(=O)N[C@H](CCCNC(=N)N)C(N)=O)C(C)C [WCopWVY3] (H-[dW][dL][dV][dW][dI][dY][dV][dR][dK][dK][dR]-NH2) | – | – | – | 1.92 | 5.67 | 7.01
CC[C@@H](C)[C@@H](NC(=O)[C@@H](Cc1c[nH]c2ccccc12)NC(=O)[C@H](NC(=O)[C@@H](CC(C)C)NC(=O)[C@H](N)Cc1c[nH]c2ccccc12)C(C)C)C(=O)N[C@H](Cc1ccc(O)cc1)C(=O)N[C@H](CCCNC(=N)N)C(=O)N[C@H](CCCCN)C(=O)N[C@H](CCCCN)C(=O)N[C@H](CCCNC(=N)N)C(N)=O [WCopWVY4] (H-[dW][dL][dV][dW][dI][dY][dR][dK][dK][dR]-NH2) | – | – | – | 1.86 | 2.57 | 5.57
CC[C@@H](C)[C@@H](NC(=O)[C@@H](Cc1c[nH]c2ccccc12)NC(=O)[C@H](NC(=O)[C@@H](CC(C)C)NC(=O)[C@H](N)Cc1c[nH]c2ccccc12)C(C)C)C(=O)N[C@H](Cc1ccc(O)cc1)C(=O)N[C@H](CC(C)C)C(=O)N[C@H](CCCNC(=N)N)C(=O)N[C@H](CCCCN)C(=O)N[C@H](CCCCN)C(=O)N[C@H](CCCNC(=N)N)C(N)=O [WCopWVY] (H-[dW][dL][dV][dW][dI][dY][dL][dR][dK][dK][dR]-NH2) | – | – | – | 2.47 | 4.51 | 7.25
CC[C@@H](C)[C@@H](NC(=O)[C@@H](Cc1c[nH]c2ccccc12)NC(=O)[C@@H](Cc1ccc(O)cc1)NC(=O)[C@@H](CC(C)C)NC(=O)[C@H](N)Cc1c[nH]c2ccccc12)C(=O)N[C@H](CC(C)C)C(=O)N[C@H](CC(C)C)C(=O)N[C@H](CCCNC(=N)N)C(=O)N[C@H](CCCCN)C(=O)N[C@H](CCCCN)C(=O)N[C@H](CCCNC(=N)N)C(N)=O [WCopWYL] (H-[dW][dL][dY][dW][dI][dL][dL][dR][dK][dK][dR]-NH2) | – | – | – | 2.50 | 6.29 | 9.62
WLLWIALRKKR-NH2 [WCopW1] | – | > 20 | – | 7.03 | 10.46 | 19.40
WLLWIALRKKR-NH2 [WCopW2] | – | – | – | 8.19 | 11.43 | 23.10
